According to ChEMBL document CHEMBL1131754, “2-heterosubstituted-3-(4-methylsulfonyl)phenyl-5-trifluoromethyl pyridines as selective and orally active cyclooxygenase-2 inhibitors” (Bioorg Med Chem Lett, 1999):

What was measured:
[1] = target: T1, Prostaglandin G/H synthase 1 (Homo sapiens, UniProt P23219); assay: In vitro inhibitory concentration required against Cyclooxygenase-1 (COX-1) determined in human whole blood (HWB) assay; assay type: tissue-based
[2] = target: T2, Prostaglandin G/H synthase 2 (Homo sapiens, UniProt P35354)
T2 sequence (P35354 whole entry): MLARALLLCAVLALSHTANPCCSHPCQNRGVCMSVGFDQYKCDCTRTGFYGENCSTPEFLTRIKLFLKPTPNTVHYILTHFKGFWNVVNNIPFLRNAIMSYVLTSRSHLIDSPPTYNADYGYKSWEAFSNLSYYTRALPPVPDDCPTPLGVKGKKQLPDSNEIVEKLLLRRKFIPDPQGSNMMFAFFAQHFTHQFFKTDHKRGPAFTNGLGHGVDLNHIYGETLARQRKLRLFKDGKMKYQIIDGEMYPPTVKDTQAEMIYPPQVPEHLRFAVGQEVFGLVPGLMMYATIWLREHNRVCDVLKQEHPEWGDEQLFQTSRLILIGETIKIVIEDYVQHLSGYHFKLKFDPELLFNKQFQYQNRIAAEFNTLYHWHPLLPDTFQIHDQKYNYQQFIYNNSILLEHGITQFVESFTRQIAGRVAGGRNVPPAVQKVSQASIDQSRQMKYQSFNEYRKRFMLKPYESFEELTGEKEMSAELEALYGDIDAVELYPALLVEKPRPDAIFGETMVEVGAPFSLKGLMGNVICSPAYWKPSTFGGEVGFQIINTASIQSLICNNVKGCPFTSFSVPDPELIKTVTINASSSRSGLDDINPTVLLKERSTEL
Description: Inhibition of Prostaglandin G/H synthase 2 in human whole blood (HWB) assay

[3] = target: T2, Prostaglandin G/H synthase 2; assay type: cell-based, CHO whole
Description: Inhibition of Prostaglandin G/H synthase 2 in CHO whole cell assay

[4] = Half-life in rats with metabolic oxidation; assay type: ADME, organism-based; conditions: rat, in vivo
[5] = target: T1, Prostaglandin G/H synthase 1
Description: Inhibition of Prostaglandin G/H synthase 1 in human whole blood (HWB) assay

[6] = Oral bioavailability in rat; assay type: ADME, organism-based; conditions: in vivo
Rattus norvegicus [7] = assay: Compound was tested in vivo for its efficacy in the model of carrageenan-induced hyperalgesia in rats; assay type: functional; conditions: read-out: ID50 (the source's name)
Rattus norvegicus [8] = assay: Compound was tested in vivo for its efficacy in the rat paw edema assay; assay type: functional
Rattus norvegicus [9] = assay: Compound was tested in vivo for its efficacy in the rat pyresis assay; assay type: functional
[10] = Half-life in rats was determined; assay type: ADME, organism-based; conditions: rat, in vivo
[11] = Maximum concentration in rats at 1-2 hours; assay type: ADME, organism-based; conditions: rat, in vivo
[12] = Half-life in rats; assay type: ADME, organism-based; conditions: rat, in vivo
[13] = Half life in rats; assay type: ADME, organism-based; conditions: rat, in vivo
[14] = Maximum concentration in rats; assay type: ADME, organism-based; conditions: rat, in vivo
[15] = Cmax in rats determined 6 hours after oral dosing of 20 mg/kg; assay type: ADME, organism-based; parameters: dose 20 mg/kg, route oral; conditions: rat, in vivo

T1 sequence (P23219 whole entry): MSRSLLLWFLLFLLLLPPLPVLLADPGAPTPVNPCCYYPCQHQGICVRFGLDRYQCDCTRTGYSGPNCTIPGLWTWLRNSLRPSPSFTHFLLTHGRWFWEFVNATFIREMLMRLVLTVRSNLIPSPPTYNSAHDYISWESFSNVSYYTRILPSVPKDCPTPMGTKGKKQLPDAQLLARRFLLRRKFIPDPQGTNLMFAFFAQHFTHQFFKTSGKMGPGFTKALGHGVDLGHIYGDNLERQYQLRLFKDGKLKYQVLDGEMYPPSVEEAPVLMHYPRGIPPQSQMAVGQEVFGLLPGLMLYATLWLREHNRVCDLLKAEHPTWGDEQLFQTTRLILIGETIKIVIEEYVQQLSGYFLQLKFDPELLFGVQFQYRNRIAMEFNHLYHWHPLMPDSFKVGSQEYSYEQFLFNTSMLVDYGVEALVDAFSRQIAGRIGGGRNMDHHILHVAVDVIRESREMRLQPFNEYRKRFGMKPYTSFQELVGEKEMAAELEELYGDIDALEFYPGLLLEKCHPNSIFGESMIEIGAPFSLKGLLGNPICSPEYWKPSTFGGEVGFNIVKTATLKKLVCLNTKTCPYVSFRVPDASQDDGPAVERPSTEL

Compound | IC50 [2] | IC50 [3] | IC50 [5] | bioavailability [6] | ED50 (Rattus norvegicus [8]) | ED50 (Rattus norvegicus [9]) | also measured
CS(=O)(=O)c1ccc(-c2cc(C(F)(F)F)cnc2Oc2ccccc2)cc1 | < 400 nM | < 200 nM | – | – | – | – | IC50 [1]: < 1240 nM
CS(=O)(=O)c1ccc(-c2cc(C(F)(F)F)cnc2OCc2ccc(Cl)cc2)cc1 | > 33000 nM | < 200 nM | > 100000 nM | – | – | – | –
CS(=O)(=O)c1ccc(-c2cc(C(F)(F)F)cnc2N2CCCC(CO)C2)cc1 (stereo not drawn) | 800 nM | < 200 nM | 41000 nM | > 75% | 1.4 mg/kg | 0.5 mg/kg | half-life [10]: < 2 h
CS(=O)(=O)c1ccc(-c2cc(C(F)(F)F)cnc2OC(C(F)(F)F)C(F)(F)F)cc1 | 500 nM | < 200 nM | > 100000 nM | – | – | – | –
CS(=O)(=O)c1ccc(-c2cc(Br)sc2-c2ccc(F)cc2)cc1 [DUP-697] | – | – | – | – | 1.3 mg/kg | – | –
COc1ccc2c(c1)c(CC(=O)O)c(C)n2C(=O)c1ccc(Cl)cc1 [INDOMETHACIN] | – | – | – | – | 2 mg/kg | 1.1 mg/kg | ED50 (Rattus norvegicus [7]): 1.5 mg/kg

More lines, main results first:

IC50 [2] | IC50 [3] | IC50 [5] | bioavailability [6] | Compound | ED50 (Rattus norvegicus [8]) | ED50 (Rattus norvegicus [9]) | also measured
140 nM | < 200 nM | 29000 nM | > 75% | C[C@H](CO)Sc1ncc(C(F)(F)F)cc1-c1ccc(S(C)(=O)=O)cc1 | 0.3 mg/kg | 0.3 mg/kg | half-life [4]: < 2 h; ED50 (Rattus norvegicus [7]): 0.65 mg/kg
– | – | – | > 75% | CC(C)(O)CSc1ncc(C(F)(F)F)cc1-c1ccc(S(C)(=O)=O)cc1 | 1.5 mg/kg | 0.5 mg/kg | half-life [10]: > 12 h
– | – | 83000 nM | > 75% | CS(=O)(=O)c1ccc(-c2cc(C(F)(F)F)cnc2OCC2(O)CCCC2)cc1 | 1.8 mg/kg | 2.2 mg/kg | Cmax [11]: 9 µM; half-life [12]: ≤ 4 h
460 nM | < 200 nM | > 100000 nM | > 75% | C[C@H](Oc1ncc(C(F)(F)F)cc1-c1ccc(S(C)(=O)=O)cc1)C(C)(C)O | 2.2 mg/kg | 0.8 mg/kg | –
– | – | > 100000 nM | > 75% | C[C@]1(O)CCC[C@H]1Oc1ncc(C(F)(F)F)cc1-c1ccc(S(C)(=O)=O)cc1 | 0.4 mg/kg | 1.6 mg/kg | half-life [13]: ≤ 4 h; Cmax [14]: 9 µM
4700 nM | < 200 nM | > 100000 nM | > 75% | CCC(O)(CC)[C@H](C)Oc1ncc(C(F)(F)F)cc1-c1ccc(S(C)(=O)=O)cc1 | 2.8 mg/kg | 1.3 mg/kg | –
500 nM | < 200 nM | > 100000 nM | – | CS(=O)(=O)c1ccc(-c2cc(C(F)(F)F)cnc2OCC(F)(F)F)cc1 | 2.4 mg/kg | – | Cmax [15]: 2.4 µM
1000 nM | < 200 nM | > 100000 nM | > 75% | CC(C)(O)COc1ncc(C(F)(F)F)cc1-c1ccc(S(C)(=O)=O)cc1 | 1.9 mg/kg | 6.8 mg/kg | half-life [12]: > 12 h
